The values below come from patent US10196373B2, “Substituted 2-hydroxy-4-(2-(phenylsulfonamido)acetamido)benzoic acid analogs as inhibitors of STAT protein” (University of Central Florida Research Foundation, Inc., priority 2010, dated 2019).

What is called IC50 is the midpoint of a concentration-inhibition curve. As usually defined, the Ki is a dissociation constant, usually derived from enzyme kinetics or from competition with a known ligand.

The structures appear in SMILES notation. Like-named read-outs stand apart in the source and are kept apart here.

One experiment deals with DU-145 cells. As to the kind of experiment: Cell viability, MTS assay. The experiment is classed as cell-based. Conditions: Homo sapiens, DU-145, 72 hours. How it is done: (§1) To further test activity of these molecules, a whole-cell study involving cancer lines with known abherrant STAT3 expression was conducted. These human cell lines, including prostate cancer (DU145), breast cancer (MDA468), and promyelocytic leukemia (HL-60) were treated with the peptidomimetics and incubated for 72 hours. Disruption of cell viability was measured by MTS assay and IC50 values for the potential inhibitors was determined. OriginPro 8 (Northampton, Mass.) was used to evaluate EC50 using the dose response curve defined as follows:
(§2) [formula] where y is the fraction of death, x is the log of drug concentration. A2 is the top asymptote, A1 is the bottom asymptote, logx0 is the center of the curve, and p is the hill slope.
On the technique in general: Tetrazolium assays rely on reduction of a dye to a coloured formazan, in cell work by metabolically active cells.

A further experiment has as its system HL60 cells. As to the kind of experiment: Cell viability, MTS assay. The experiment is classed as cell-based. Conditions: Homo sapiens, HL-60, HL60, 72 hours. How it is done: as §1, §2
Another experiment relates to MDA-468 cells. Description: Cell viability, MTS assay. The experiment is classed as cell-based. Conditions: Homo sapiens, MDA-468, 72 hours. How it is done:
as §1, §2

The subject of another experiment is OCI-AMI.2 cells. As to the kind of experiment: Cell viability, MTS assay. The experiment is classed as cell-based.
In a further experiment the test system is K562 cells. As to the kind of experiment: Cell viability in cell lines with constitutive activation of STAT5 (Almar Blue). The experiment is classed as cell-based. How it is done:
(§3) To determine whether STAT5 inhbitors could be cytotoxic in cell lines that have constitutive activation of STAT5, the cell lines K562 and MV-4-11 were cultured at concentration 1×10^5, to insure that the cells are at the exponential stage of growth, and treated with the different synthesized molecules at concentrations of 10, 20 and 40 μM. Viability were determined using Almar Blue (Invitrogen) in 96-well plate over 3 consecutive days. Fluorescence was quantified using Spectra Max M5 (Molecular Devices).

The next experiment has as its system MV-4-11 cells. The experiment is described as above. The experiment is classed as cell-based. How it is done: as §3
The target in experiment [1] is STAT3 (Mus musculus, UniProt P42227). Description: Stat3 DNA-binding activity, electrophoretic mobility shift assay (EMSA) with nuclear extracts. The experiment is classed as biochemical. Conditions: inhibition of STAT3 activity in an EMSA. The protocol: Nuclear extract preparations and electrophoretic mobility shift assay (EMSA) were carried out as previously described (Yang J, et al. (2005) Cancer Res. 65:939-947). […] For direct effect of a test compound on Stat3 DNA-binding activity, nuclear extracts were pre-incubated with the agent for 30 min at room temperature prior to incubation with the radiolabeled probe for 30 min at 30° C. before subjecting to EMSA analysis. […] Cytosolic extract preparation from mammalian cells and luciferase assay previously described (Zhang X, et al. (2010) Biochem Pharmacol 79:1398-1409; Turkson J, et al. (1999) Mol. Cell. Biol. 19:7519-7528; Turkson J, et al. (1998) Mol. Cell. Biol. 18:2545-2552).)
In general terms: A gel shift assay detects complexes by their altered migration in electrophoresis.

The target in experiment [2] is STAT3 (Homo sapiens (Human), UniProt P40763). As to the kind of experiment: Fluorescence polarization assay, inhibition of binding to STAT3. Conditions: inhibition of binding to STAT3 in a fluorescence polarization assay; read-out: Ki (FP). The protocol: The fluorescent polarization experiments were performed on an Infinite M1000 (Tecan, Crailsheim, Germany). All assays were performed in the same buffer conditions of 50 mM NaCl, 10 mM Hepes, pH 7.5, 1 mM EDTA, and 2 mM dithiothreitol. Fluorescent-labelled peptides were kept at a final concentration of 10nM in buffered solution. […] of labelled peptides were added to […] of a 300 nM STAT3 protein solution (provided by SignalChem in 50 mM Tris-HCl, pH 7.5, 150 mM NaCl, 0.25 mM DTT, 0.1 mM PMSF, 25% glycerol and stored at −80° C.). Inhibitory molecules were dissolved in pure DMSO and diluted using buffer solution to produce four final concentrations ([…]). 7.5 μL of the inhibitory molecule solution was mixed with the STAT3 protein and labelled peptide solution in black 384-flat well microplates (Coming), and incubated for 15-30 minutes. The M1000 performed a shaking cycle and then read the plates. IC50′s were derived from the output using the curve-fitting software OriginPro 8 (Northampton, MA). The FP data was modelled by the following equation:
[formula] where X was the concentration of inhibitor and ρwas the corresponding fluorescence at that concentration. The free parameter was half the maximal inhibitory concentration (IC50) and the limiting values was the maximal measured fluorescence polarization (ρ1) and the minimal fluorescence polarization (ρ2). Origin curve fitting software utilizes the Levenberg-Marquardt algorithm and reduced chi-square criterion for convergence. The inhibitor dissociation constant, Ki, was calculated from the derived IC50 values, as per the following formula: […]
Further details of the fluorescence polarization assay are as described previously (Zhang X, et al. (2010) A novel small-molecule disrupts Stat3 SH2domainphosphotyrosine interactions and Stat3-dependent tumor processes. Biochem Pharmacol 79: 1398-1409).
For orientation: Polarisation of emitted light reports the rotation of a fluorescent probe.

Chain of STAT3 (Mus musculus, UniProt P42227) (P42227 2-770 limits assumed): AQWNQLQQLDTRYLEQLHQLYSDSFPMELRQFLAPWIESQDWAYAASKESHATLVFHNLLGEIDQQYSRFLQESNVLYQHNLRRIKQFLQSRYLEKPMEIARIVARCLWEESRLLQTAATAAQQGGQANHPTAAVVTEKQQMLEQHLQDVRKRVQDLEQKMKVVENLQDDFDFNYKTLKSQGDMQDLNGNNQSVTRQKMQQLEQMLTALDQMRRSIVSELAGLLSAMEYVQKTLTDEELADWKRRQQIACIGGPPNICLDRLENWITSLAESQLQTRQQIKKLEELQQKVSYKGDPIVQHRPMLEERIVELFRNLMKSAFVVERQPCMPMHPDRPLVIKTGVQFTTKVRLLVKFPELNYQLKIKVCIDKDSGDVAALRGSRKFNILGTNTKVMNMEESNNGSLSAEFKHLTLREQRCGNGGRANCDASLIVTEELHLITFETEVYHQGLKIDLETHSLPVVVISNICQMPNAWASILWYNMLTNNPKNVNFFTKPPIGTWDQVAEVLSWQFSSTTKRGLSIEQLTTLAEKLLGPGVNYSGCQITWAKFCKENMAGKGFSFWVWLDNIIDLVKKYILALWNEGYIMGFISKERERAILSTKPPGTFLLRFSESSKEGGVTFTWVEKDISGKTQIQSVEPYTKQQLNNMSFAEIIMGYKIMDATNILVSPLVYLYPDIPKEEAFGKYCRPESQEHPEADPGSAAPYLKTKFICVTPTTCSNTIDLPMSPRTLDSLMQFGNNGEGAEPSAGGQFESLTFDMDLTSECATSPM
Chain of STAT3 (Homo sapiens (Human), UniProt P40763) (P40763 whole entry): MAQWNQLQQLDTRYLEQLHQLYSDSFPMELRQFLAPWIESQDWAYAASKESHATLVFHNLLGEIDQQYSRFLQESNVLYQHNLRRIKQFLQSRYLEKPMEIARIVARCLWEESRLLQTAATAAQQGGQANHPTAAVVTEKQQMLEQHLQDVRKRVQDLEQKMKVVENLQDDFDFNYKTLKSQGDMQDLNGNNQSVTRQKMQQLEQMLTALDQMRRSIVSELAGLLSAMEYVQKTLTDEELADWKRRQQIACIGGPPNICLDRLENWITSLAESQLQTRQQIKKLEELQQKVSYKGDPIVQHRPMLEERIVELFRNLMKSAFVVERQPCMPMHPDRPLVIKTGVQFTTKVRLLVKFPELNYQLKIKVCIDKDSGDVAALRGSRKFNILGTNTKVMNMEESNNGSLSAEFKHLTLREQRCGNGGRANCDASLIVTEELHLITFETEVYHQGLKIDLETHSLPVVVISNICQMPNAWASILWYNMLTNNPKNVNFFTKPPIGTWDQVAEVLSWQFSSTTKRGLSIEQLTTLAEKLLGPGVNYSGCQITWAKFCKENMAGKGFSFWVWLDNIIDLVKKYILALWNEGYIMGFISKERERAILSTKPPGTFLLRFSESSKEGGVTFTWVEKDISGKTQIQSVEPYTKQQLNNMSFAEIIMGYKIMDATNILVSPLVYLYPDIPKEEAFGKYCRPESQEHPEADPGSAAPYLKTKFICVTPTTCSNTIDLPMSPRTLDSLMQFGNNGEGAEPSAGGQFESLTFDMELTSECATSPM

On to `COC(=O)c1cccc(-c2ccc(-c3ccc(CN(C(=O)CN(C)S(=O)(=O)c4ccc(C)cc4)c4ccc(C(=O)O)c(O)c4)cc3)cc2)c1` [Compound 27na], for which the IC50 with DU-145 cells is 81.5 ± 8 µM; with HL60 cells, 33.2 ± 9.2 µM; with MDA-468 cells, 29 ± 2.3 µM; with OCI-AMI.2 cells it was 35.1 ± 19.4 µM; in the experiment with K562 cells (Homo sapiens), 24 ± 3 µM; in the experiment with MV-4-11 cells (Homo sapiens, MV4-11) it was 24 ± 2 µM.
As to `CN(CC(=O)N(Cc1ccc(C2CCCCC2)cc1)c1ccc(C(=O)O)c(O)c1)S(=O)(=O)c1cccc2ccccc12` [Compound 45E, 4-(N-(4-cyclohexylbenzyl)-2-(N-methylnaphthalene-1-sulfonamido)acetamido)-2-hydroxy-benzoic acid], the IC50 at STAT3 [1] amounted to 28.8 ± 2 µM; in the experiment with DU-145 cells it was 74.5 ± 30.2 µM; in the experiment on HL60 cells, 76.9 ± 50.5 µM; with MDA-468 cells it was 46.5 ± 12.4 µM; with OCI-AMI.2 cells, 33.3 ± 19.8 µM. Besides, at STAT3 [2], the Ki worked out at 26.5 ± 0.4 µM.
In the case of `CN(CC(=O)N(Cc1ccc(C2CCCCC2)cc1)c1ccc(C(=O)O)c(O)c1)S(=O)(=O)c1cccc2cccnc12` [Compound 45F, 4-(N-(4-cyclohexylbenzyl)-2-(N-methylquinoline-8-sulfonamido)acetamido)-2-hydroxy-benzoic acid], the IC50 at STAT3 [1] was 24.6 ± 3.4 µM; with DU-145 cells, above 100 µM; in the experiment on HL60 cells, above 100 µM; with MDA-468 cells, above 100 µM; with OCI-AMI.2 cells, above 100 µM. Moreover, the Ki on STAT3 [2] worked out at 41 ± 0.4 µM.
`Cc1cc(C)c(S(=O)(=O)N(C)CC(=O)N(Cc2ccc(C3CCCCC3)cc2)c2ccc(C(=O)O)c(O)c2)c(C)c1` [Compound 45b, 4-(N-(4-cyclohexylbenzyl)-2-(N,2,4,6-tetramethylphenylsulfonamido)acetamido)-2-hydroxy-benzoic acid]: the IC50 in the experiment with DU-145 cells was 44.5 ± 16 µM; in the experiment on HL60 cells it was 40.4 ± 20.2 µM; in the experiment on MDA-468 cells, 22.6 ± 8.3 µM; with OCI-AMI.2 cells it was 65.4 ± 13 µM; with K562 cells (Homo sapiens), 80 ± 18 µM; in the experiment with MV-4-11 cells (Homo sapiens, MV4-11) it was above 80 µM.
On to `CN(CC(=O)N(Cc1ccc(C2CCCCC2)cc1)c1ccc(C(=O)O)c(O)c1)S(=O)(=O)c1ccc(-c2ccccc2)cc1` [Compound 45c, 4-(N-(4-cyclohexylbenzyl)-2-(N-methylbiphenyl-4-ylsulfonamido)acetamido)-2-hydroxy-benzoic acid], for which the IC50 is 80 ± 31.6 µM in the experiment on DU-145 cells; 74.8 ± 28.2 µM with HL60 cells; 47.4 ± 6.2 µM in the experiment with MDA-468 cells; 95.4 ± 33.7 µM with OCI-AMI.2 cells; 42 ± 16 µM with K562 cells (Homo sapiens); 17 ± 1 µM in the experiment on MV-4-11 cells (Homo sapiens, MV4-11).
In the case of `Cc1ccc(S(=O)(=O)N(CC(=O)N(Cc2ccc(C3CCCCC3)cc2)c2ccc(C(=O)O)c(O)c2)C(=O)OC(C)(C)C)cc1` [SF-1-087], the IC50 in the experiment on K562 cells was above 80 µM; with MV-4-11 cells it was 51 ± 7 µM.
On the same counts, the results for `Cc1ccc(S(=O)(=O)N(CC(=O)N(Cc2ccccc2)c2ccc(C(=O)O)c(O)c2)C(=O)OC(C)(C)C)cc1` [SF-1-088] are 77 ± 5 µM and above 80 µM.
